# In PubChem BioAssay AID1259407 (Chemical Carcinogenesis Research Information System (CCRIS), 2018):
# The source made the active and inactive calls. The rule behind the calls is not given here.
# Tested on: CCRIS mutagenicity, Ames/micronucleus/aberration tests
# Experiment: CCRIS mutagenicity studies
# [1] = Test System: AMES SALMONELLA TYPHIMURIUM, Strain/Indicator: TA98, Metabolic Activation: NONE, Method: STANDARD PLATE
# [2] = Test System: AMES SALMONELLA TYPHIMURIUM, Strain/Indicator: TA100, Metabolic Activation: NONE, Method: STANDARD PLATE
# [3] = Test System: AMES SALMONELLA TYPHIMURIUM, Strain/Indicator: TA98, Metabolic Activation: NONE, Method: PREINCUBATION
smiles,measurement,setting,value
C=Cc1ccc(O)c(OC)c1,mutagenic call,"Test System: AMES SALMONELLA TYPHIMURIUM, Strain/Indicator: TA98, Metabolic Activation: HAMSTER, LIVER, S-9, AROCLOR 1254, Method: STANDARD PLATE",inactive; negative
same,mutagenic call,[1],inactive; negative
same,mutagenic call,"Test System: AMES SALMONELLA TYPHIMURIUM, Strain/Indicator: TA98, Metabolic Activation: RAT, LIVER, S-9, AROCLOR 1254, Method: STANDARD PLATE",inactive; negative
same,mutagenic call,"Test System: AMES SALMONELLA TYPHIMURIUM, Strain/Indicator: TA100, Metabolic Activation: HAMSTER, LIVER, S-9, AROCLOR 1254, Method: STANDARD PLATE",inactive; negative
same,mutagenic call,[2],inactive; negative
same,mutagenic call,"Test System: AMES SALMONELLA TYPHIMURIUM, Strain/Indicator: TA100, Metabolic Activation: RAT, LIVER, S-9, AROCLOR 1254, Method: STANDARD PLATE",inactive; negative
same,mutagenic call,"Test System: AMES SALMONELLA TYPHIMURIUM, Strain/Indicator: TA1535, Metabolic Activation: HAMSTER, LIVER, S-9, AROCLOR 1254, Method: STANDARD PLATE",inactive; negative
same,mutagenic call,"Test System: AMES SALMONELLA TYPHIMURIUM, Strain/Indicator: TA1535, Metabolic Activation: NONE, Method: STANDARD PLATE",inactive; negative
same,mutagenic call,"Test System: AMES SALMONELLA TYPHIMURIUM, Strain/Indicator: TA1535, Metabolic Activation: RAT, LIVER, S-9, AROCLOR 1254, Method: STANDARD PLATE",inactive; negative
same,mutagenic call,"Test System: AMES SALMONELLA TYPHIMURIUM, Strain/Indicator: TA1537, Metabolic Activation: HAMSTER, LIVER, S-9, AROCLOR 1254, Method: STANDARD PLATE",inactive; negative
same,mutagenic call,"Test System: AMES SALMONELLA TYPHIMURIUM, Strain/Indicator: TA1537, Metabolic Activation: NONE, Method: STANDARD PLATE",inactive; negative
same,mutagenic call,"Test System: AMES SALMONELLA TYPHIMURIUM, Strain/Indicator: TA1537, Metabolic Activation: RAT, LIVER, S-9, AROCLOR 1254, Method: STANDARD PLATE",inactive; negative
same,mutagenic call,"Test System: MOUSE LYMPHOMA, Strain/Indicator: L5178Y (TK+/TK-), Metabolic Activation: NONE, Method: SUSPENSION/PLATE",inactive; negative. reevaluation of results: equivocal
same,mutagenic call,"Test System: MOUSE LYMPHOMA, Strain/Indicator: L5178Y (TK+/TK-), Metabolic Activation: RAT, LIVER, S-9, AROCLOR 1254, Method: SUSPENSION/PLATE",inactive; negative. reevaluation of results: negative
CSC(=O)c1cccc2nnsc12,mutagenic call,"End Point: In vivo micronucleus, Test System: Femoral bone marrow polychromatic erythrocytes, Species: Mouse, Strain/Sex: Female, Route: Gavage",inactive; negative; strain is not given by dpr reviewer
same,mutagenic call,"End Point: In vivo micronucleus, Test System: Femoral bone marrow polychromatic erythrocytes, Species: Mouse, Strain/Sex: Male, Route: Gavage",inactive; negative; strain is not given by dpr reviewer
Cc1cc(C)c(C)cc1C,mutagenic call,"Test System: AMES SALMONELLA TYPHIMURIUM, Strain/Indicator: TA97A, Metabolic Activation: NONE, Method: STANDARD PLATE",inactive; negative
same,mutagenic call,"Test System: AMES SALMONELLA TYPHIMURIUM, Strain/Indicator: TA97A, Metabolic Activation: RAT LIVER S-9, AROCLOR 1254, Method: STANDARD PLATE",inactive; negative
same,mutagenic call,[1],inactive; negative
same,mutagenic call,"Test System: AMES SALMONELLA TYPHIMURIUM, Strain/Indicator: TA98, Metabolic Activation: RAT LIVER S-9, AROCLOR 1254, Method: STANDARD PLATE",inactive; negative
same,mutagenic call,[2],inactive; negative
same,mutagenic call,"Test System: AMES SALMONELLA TYPHIMURIUM, Strain/Indicator: TA100, Metabolic Activation: RAT LIVER S-9, AROCLOR 1254, Method: STANDARD PLATE",inactive; negative
same,mutagenic call,"Test System: AMES SALMONELLA TYPHIMURIUM, Strain/Indicator: TA102, Metabolic Activation: NONE, Method: STANDARD PLATE",inactive; negative
same,mutagenic call,"Test System: AMES SALMONELLA TYPHIMURIUM, Strain/Indicator: TA102, Metabolic Activation: RAT LIVER S-9, AROCLOR 1254, Method: STANDARD PLATE",inactive; negative
COc1c2ccoc2c(OC)c2oc(=O)ccc12,mutagenic call,[1],inactive; negative
same,mutagenic call,"Test System: AMES SALMONELLA TYPHIMURIUM, Strain/Indicator: TA98, Metabolic Activation: RAT, LIVER, S-9, PHENOBARBITAL, Method: STANDARD PLATE",inactive; negative
Oc1cc(O)c2cc(O)c(-c3cc(O)c(O)c(O)c3)[o+]c2c1,mutagenic call,[3],inactive; negative
same,mutagenic call,"Test System: AMES SALMONELLA TYPHIMURIUM, Strain/Indicator: TA98, Metabolic Activation: RAT, LIVER, S-9, AROCLOR 1254, Method: PREINCUBATION",inactive; negative
same,mutagenic call,"Test System: AMES SALMONELLA TYPHIMURIUM, Strain/Indicator: TA100, Metabolic Activation: NONE, Method: PREINCUBATION",inactive; negative
same,mutagenic call,"Test System: AMES SALMONELLA TYPHIMURIUM, Strain/Indicator: TA100, Metabolic Activation: RAT, LIVER, S-9, AROCLOR 1254, Method: PREINCUBATION",inactive; negative
same,mutagenic call,"Test System: AMES SALMONELLA TYPHIMURIUM, Strain/Indicator: TA1535, Metabolic Activation: NONE, Method: PREINCUBATION",inactive; negative
same,mutagenic call,"Test System: AMES SALMONELLA TYPHIMURIUM, Strain/Indicator: TA1535, Metabolic Activation: RAT, LIVER, S-9, AROCLOR 1254, Method: PREINCUBATION",inactive; negative
same,mutagenic call,"Test System: AMES SALMONELLA TYPHIMURIUM, Strain/Indicator: TA1537, Metabolic Activation: NONE, Method: PREINCUBATION",inactive; negative
same,mutagenic call,"Test System: AMES SALMONELLA TYPHIMURIUM, Strain/Indicator: TA1537, Metabolic Activation: RAT, LIVER, S-9, AROCLOR 1254, Method: PREINCUBATION",inactive; negative
same,mutagenic call,"Test System: AMES SALMONELLA TYPHIMURIUM, Strain/Indicator: TA1538, Metabolic Activation: NONE, Method: PREINCUBATION",inactive; negative
same,mutagenic call,"Test System: AMES SALMONELLA TYPHIMURIUM, Strain/Indicator: TA1538, Metabolic Activation: RAT, LIVER, S-9, AROCLOR 1254, Method: PREINCUBATION",inactive; negative
CC1CNC(=O)N1c1ncc([N+](=O)[O-])s1 (stereo unspecified),mutagenic call,[1],active; positive
same,mutagenic call,[2],active; positive
C[C@@H]1O[C@@H](O[C@H]2C[C@](O)(C(=O)CO)Cc3c(O)c4c(c(O)c32)C(=O)c2ccccc2C4=O)C[C@H](N)[C@@H]1O,mutagenic call,"Test System: AMES SALMONELLA TYPHIMURIUM, Strain/Indicator: GW257, Metabolic Activation: NONE, Method: STANDARD PLATE",active; positive
same,mutagenic call,"Test System: AMES SALMONELLA TYPHIMURIUM, Strain/Indicator: TA97, Metabolic Activation: NONE, Method: STANDARD PLATE",inactive; negative
same,mutagenic call,[3],active; positive
same,mutagenic call,[1],active; positive
same,mutagenic call,[2],active; positive
same,mutagenic call,"Test System: AMES SALMONELLA TYPHIMURIUM, Strain/Indicator: TA104, Metabolic Activation: NONE, Method: STANDARD PLATE",inactive; negative
same,mutagenic call,"Test System: AMES SALMONELLA TYPHIMURIUM, Strain/Indicator: TA1538, Metabolic Activation: NONE, Method: STANDARD PLATE",active; positive
same,mutagenic call,"Test System: AMES SALMONELLA TYPHIMURIUM, Strain/Indicator: TA2637, Metabolic Activation: NONE, Method: STANDARD PLATE",active; positive
same,mutagenic call,"Test System: CHINESE HAMSTER V-79, Strain/Indicator: V-79/6-THIOGUANINE, Metabolic Activation: NONE, Method: SUSPENSION/PLATE",active; positive
same,mutagenic call,"Test System: CHINESE HAMSTER V-79, Strain/Indicator: V-79/6-THIOGUANINE, Metabolic Activation: RAT, LIVER, HOMOGENATE, Method: SUSPENSION/PLATE",inactive; negative
same,mutagenic call,"Test System: UDS RAT HEPATOCYTES, Strain/Indicator: THY INCORP, Metabolic Activation: NONE, Method: AUTOMATIC COLONY COUNTER",active; positive
O=C1CC(=C(Cl)Cl)C(=O)N1,mutagenic call,[2],active; positive
CCCCCCCCS(=O)C(C)Cc1ccc2c(c1)OCO2 (stereo unspecified),mutagenic call,"End Point: IN VITRO CHROMOSOMAL ABERRATIONS, Test System: CHINESE HAMSTER OVARY CELLS, Metabolic Activation: NONE",inactive; negative
same,mutagenic call,"End Point: IN VITRO CHROMOSOMAL ABERRATIONS, Test System: CHINESE HAMSTER OVARY CELLS, Metabolic Activation: RAT, LIVER, S-9, AROCLOR 1254",inactive; negative
CC(=O)Nc1ccc(Oc2ccc(NC(C)=O)cc2)cc1,mutagenic call,[1],inactive; negative
same,mutagenic call,"Test System: AMES SALMONELLA TYPHIMURIUM, Strain/Indicator: TA98, Metabolic Activation: RAT, LIVER, S-9, PCB, Method: STANDARD PLATE",inactive; negative
same,mutagenic call,[2],inactive; negative
same,mutagenic call,"Test System: AMES SALMONELLA TYPHIMURIUM, Strain/Indicator: TA100, Metabolic Activation: RAT, LIVER, S-9, PCB, Method: STANDARD PLATE",inactive; negative
